Experimental data as given in ChEMBL document CHEMBL3621069 (Bioorg Med Chem Lett, 2015).
≈ marks a conversion by molar mass, not a printed value.

Experiments:
[1] = molecular target: T1, Tyrosine-protein kinase SYK (Homo sapiens, UniProt P43405); experiment: Inhibition of purified full-length human SYK pre-incubated for 30 mins at room temperature before Ulight-TK peptide substrate addition and measured 1 hr after substrate addition by cell free kinase assay
[2] = Clearance in Sprague-Dawley rat at 10 mg/kg, po; assay type: ADME, organism-based; conditions: in vivo
Rattus norvegicus = experiment: Volume of distribution at steady state in Sprague-Dawley rat at 10 mg/kg, po; assay type: ADME, organism-based; conditions: in vivo
[3] = Terminal half life in Sprague-Dawley rat at 10 mg/kg, po; assay type: ADME, organism-based; conditions: in vivo, read-out: beta t1/2 (converted)
[4] = Oral bioavailability in Sprague-Dawley rat at 10 mg/kg; assay type: ADME, organism-based; conditions: in vivo
[5] = AUClast in Sprague-Dawley rat at 10 mg/kg; assay type: ADME, organism-based; parameters: dose 10 mg/kg, time 0 - last; conditions: in vivo
[6] = Kinetic solubility of the compound; assay type: physicochemical; conditions: read-out: Kinetic_solubility
[7] = Apparent permeability in human Caco2 cells; assay type: ADME, cell-based; conditions: Caco-2
Cytochrome P450 3A4 = Cytochrome P450 3A4 (Homo sapiens, UniProt P08684); experiment: Inhibition of CYP3A4 (unknown origin); assay type: ADME
Sequence of Cytochrome P450 3A4 (P08684 whole entry): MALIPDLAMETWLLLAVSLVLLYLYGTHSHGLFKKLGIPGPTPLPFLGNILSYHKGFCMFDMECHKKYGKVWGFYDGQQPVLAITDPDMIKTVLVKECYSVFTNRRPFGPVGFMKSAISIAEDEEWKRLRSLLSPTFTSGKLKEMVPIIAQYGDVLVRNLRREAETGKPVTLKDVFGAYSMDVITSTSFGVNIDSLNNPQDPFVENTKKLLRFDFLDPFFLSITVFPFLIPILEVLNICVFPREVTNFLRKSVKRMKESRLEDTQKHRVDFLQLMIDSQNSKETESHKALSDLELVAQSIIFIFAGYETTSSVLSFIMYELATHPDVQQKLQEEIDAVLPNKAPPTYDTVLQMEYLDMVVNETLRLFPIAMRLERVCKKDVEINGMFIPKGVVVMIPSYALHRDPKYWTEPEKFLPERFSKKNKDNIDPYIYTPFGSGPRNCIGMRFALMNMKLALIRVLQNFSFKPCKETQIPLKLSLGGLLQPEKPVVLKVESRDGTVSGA

[8] = molecular target: T1, Tyrosine-protein kinase SYK; experiment: Inhibition of SYK-mediated TNFalpha production in human IgG-stimulated human THP1 cells incubated for 18 hrs by ELISA method; assay type: cell-based, THP-1
[9] = molecular target: T2, Tyrosine-protein kinase JAK3 (Homo sapiens, UniProt P52333); experiment: Inhibition of JAK3 (unknown origin) pre-incubated for 30 mins at room temperature before substrate addition and measured 1 hr after substrate addition by cell free kinase assay
T2 sequence (P52333 whole entry): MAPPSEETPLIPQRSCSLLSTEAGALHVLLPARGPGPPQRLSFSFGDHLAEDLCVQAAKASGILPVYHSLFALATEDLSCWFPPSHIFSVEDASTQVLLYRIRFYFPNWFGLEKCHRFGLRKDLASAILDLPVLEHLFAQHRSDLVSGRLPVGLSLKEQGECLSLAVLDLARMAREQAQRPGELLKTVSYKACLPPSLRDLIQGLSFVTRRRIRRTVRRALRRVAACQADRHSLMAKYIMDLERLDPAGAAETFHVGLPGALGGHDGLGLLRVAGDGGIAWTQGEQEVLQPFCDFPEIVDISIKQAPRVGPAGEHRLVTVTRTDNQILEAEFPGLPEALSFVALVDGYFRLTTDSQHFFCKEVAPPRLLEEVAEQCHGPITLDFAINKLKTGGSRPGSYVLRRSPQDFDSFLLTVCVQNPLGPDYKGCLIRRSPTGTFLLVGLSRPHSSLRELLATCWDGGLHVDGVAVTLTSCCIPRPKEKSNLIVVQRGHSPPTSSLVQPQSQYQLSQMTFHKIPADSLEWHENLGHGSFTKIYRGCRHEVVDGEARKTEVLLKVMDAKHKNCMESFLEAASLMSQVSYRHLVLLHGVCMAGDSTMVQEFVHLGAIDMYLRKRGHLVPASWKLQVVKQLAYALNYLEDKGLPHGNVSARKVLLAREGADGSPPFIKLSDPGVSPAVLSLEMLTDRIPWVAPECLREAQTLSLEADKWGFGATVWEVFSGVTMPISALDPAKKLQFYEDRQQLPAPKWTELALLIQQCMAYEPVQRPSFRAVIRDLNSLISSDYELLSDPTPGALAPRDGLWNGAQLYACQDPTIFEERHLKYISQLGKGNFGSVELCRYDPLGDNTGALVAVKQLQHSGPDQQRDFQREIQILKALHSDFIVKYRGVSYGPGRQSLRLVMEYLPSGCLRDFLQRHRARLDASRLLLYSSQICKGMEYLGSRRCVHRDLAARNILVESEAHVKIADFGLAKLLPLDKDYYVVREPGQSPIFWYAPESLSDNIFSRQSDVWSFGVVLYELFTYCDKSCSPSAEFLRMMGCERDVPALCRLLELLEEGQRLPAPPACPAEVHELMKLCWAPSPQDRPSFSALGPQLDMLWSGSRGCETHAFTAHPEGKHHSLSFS

[10] = molecular target: T3, Tyrosine-protein kinase ZAP-70 (Homo sapiens, UniProt P43403); experiment: Inhibition of purified full-length human ZAP70 pre-incubated for 30 mins at room temperature before UlighTM-PolyGT peptide substrate addition and measured 1 hr after substrate addition by cell free kinase assay
T3 sequence (P43403 whole entry): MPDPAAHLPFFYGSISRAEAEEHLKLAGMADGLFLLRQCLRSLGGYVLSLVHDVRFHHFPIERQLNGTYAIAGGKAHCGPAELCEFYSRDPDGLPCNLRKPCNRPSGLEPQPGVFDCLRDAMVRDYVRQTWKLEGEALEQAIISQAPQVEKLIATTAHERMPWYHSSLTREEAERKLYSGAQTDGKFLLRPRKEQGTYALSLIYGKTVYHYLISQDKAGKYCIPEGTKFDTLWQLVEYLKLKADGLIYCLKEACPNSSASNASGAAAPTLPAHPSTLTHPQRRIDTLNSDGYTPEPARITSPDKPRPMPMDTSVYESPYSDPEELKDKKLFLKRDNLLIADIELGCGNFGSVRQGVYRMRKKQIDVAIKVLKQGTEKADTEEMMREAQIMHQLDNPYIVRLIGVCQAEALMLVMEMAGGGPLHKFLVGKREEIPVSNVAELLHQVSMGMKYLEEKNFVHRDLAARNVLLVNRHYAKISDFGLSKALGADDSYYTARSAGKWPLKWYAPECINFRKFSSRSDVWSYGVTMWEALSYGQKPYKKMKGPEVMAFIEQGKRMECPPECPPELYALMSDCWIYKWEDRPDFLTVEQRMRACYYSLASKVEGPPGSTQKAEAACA

[11] = molecular target: Proto-oncogene tyrosine-protein kinase receptor Ret (Homo sapiens, UniProt P07949); experiment: Inhibition of human RET pre-incubated for 30 mins at room temperature before substrate addition and measured 1 hr after substrate addition by cell free kinase assay
Sequence of Proto-oncogene tyrosine-protein kinase receptor Ret (P07949 whole entry): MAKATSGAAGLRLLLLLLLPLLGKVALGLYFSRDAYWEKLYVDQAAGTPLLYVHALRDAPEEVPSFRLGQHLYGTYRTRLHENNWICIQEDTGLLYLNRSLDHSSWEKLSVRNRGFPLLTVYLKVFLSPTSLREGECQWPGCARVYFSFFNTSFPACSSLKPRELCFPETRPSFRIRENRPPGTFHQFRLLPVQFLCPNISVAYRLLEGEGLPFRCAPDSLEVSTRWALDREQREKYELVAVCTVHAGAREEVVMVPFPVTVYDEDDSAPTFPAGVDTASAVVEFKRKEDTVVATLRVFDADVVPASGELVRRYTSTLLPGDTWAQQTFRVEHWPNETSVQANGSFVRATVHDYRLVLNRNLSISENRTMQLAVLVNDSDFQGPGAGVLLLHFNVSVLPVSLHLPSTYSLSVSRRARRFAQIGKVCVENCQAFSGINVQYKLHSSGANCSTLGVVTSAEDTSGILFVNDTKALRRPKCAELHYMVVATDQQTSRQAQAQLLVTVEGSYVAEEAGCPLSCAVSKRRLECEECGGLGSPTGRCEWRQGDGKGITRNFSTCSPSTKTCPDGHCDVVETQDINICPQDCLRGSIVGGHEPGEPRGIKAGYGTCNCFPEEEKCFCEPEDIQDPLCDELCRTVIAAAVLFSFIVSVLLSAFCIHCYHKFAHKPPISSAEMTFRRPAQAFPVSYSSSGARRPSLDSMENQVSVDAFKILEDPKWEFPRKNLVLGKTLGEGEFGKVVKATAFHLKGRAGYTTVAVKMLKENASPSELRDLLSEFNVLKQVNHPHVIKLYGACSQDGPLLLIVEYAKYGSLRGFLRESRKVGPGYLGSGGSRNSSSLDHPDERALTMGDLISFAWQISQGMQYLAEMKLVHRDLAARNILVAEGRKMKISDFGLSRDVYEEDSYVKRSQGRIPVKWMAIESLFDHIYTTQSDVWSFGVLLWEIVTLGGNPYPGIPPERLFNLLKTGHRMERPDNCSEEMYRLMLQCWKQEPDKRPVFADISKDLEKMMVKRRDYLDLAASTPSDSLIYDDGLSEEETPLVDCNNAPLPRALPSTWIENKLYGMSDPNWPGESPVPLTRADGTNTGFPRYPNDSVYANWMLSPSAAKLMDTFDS

[12] = Stability in human liver microsomes; assay type: ADME; conditions: read-out: Stability
[13] = Apparent permeability from apical to basolateral side in human Caco2 cells; assay type: ADME, cell-based; conditions: Caco-2
[14] = Apparent permeability from basolateral to apical side in human Caco2 cells; assay type: ADME, cell-based; conditions: Caco-2
[15] = Inhibition of CYP450 (unknown origin); assay type: ADME, Homo sapiens
Plasma = experiment: Unbound fraction in human plasma; assay type: ADME, cell-free

Row | SMILES | IC50 [1] [nM] | other results
1 | Cc1cn(-c2ccnc(Nc3cc(C)c(OCCO)c(C)c3)n2)cc1CN1CC(O)C1 | 5 | –
2 | CCn1ccc2cc(Nc3nccc(-n4cc(CN5CC(O)C5)c(C5CC5)n4)n3)ccc21 | 9.2 | –
3 | COc1c(C)cc(Nc2nccc(-n3cc(C)c(CN4CC(O)C4)c3)n2)cc1C | 5.7 | CL/F [2]: 70 mL/min/kg; Vdss (Rattus norvegicus): 5.6 L/kg; half-life [3]: 1.2 h; bioavailability [4]: 7.8%; AUC(0-t) [5]: 550 ng·h/mL
4 | Cc1cn(-c2ccnc(Nc3cc(C)c(OCC(=O)N4CCCC4)c(C)c3)n2)cc1CN1CC(O)C1 | 7.3 | –
5 | Cc1cn(-c2ccnc(Nc3cc(C)c(OCCO)c(C)c3)n2)cc1CN1CC[C@@H](O)C1 | 17.3 | solubility kinetic [6]: 120 µM (≈ 52.5 µg/mL); Papp [7]: 10.3 ×10⁻⁶ cm/s; IC50 (Cytochrome P450 3A4): > 10000 nM
6 | Cc1cn(-c2ccnc(Nc3cc(C)c(OS(C)(=O)=O)c(C)c3)n2)cc1CN1CC(O)C1 | 6.3 | –
7 | Cc1nn(-c2nc(Nc3ccc4c(cnn4C)c3)ncc2F)cc1CN1CC(O)C1 | 326 | –
8 | Cc1cn(-c2ccnc(Nc3cc(C)c(OS(C)(=O)=O)c(C)c3)n2)cc1CN1CC[C@@H](O)C1 | 7.9 | –
9 | Cc1nn(-c2ccnc(Nc3ccccc3)n2)cc1CN1CC[C@@H](O)C1 | 871 | –
10 | COc1cc(Nc2nccc(-n3cc(C)c(CN4CC[C@@H](O)C4)c3)n2)cc(OC)c1OCC(=O)N1CCCC1 | 101 | –
11 | Cc1nn(-c2ccnc(Nc3ccc4c(c3)CCN4C)n2)cc1CN1CC(O)C1 | 20.4 | –
12 | Cc1cc(C)cc(Nc2nccc(-n3cc(CN4CC[C@@H](O)C4)c(C4CC4)c3)n2)c1 | 3.7 | –
13 | Cc1cc(C)cc(Nc2nccc(-n3cc(CN4CC[C@@H](O)C4)c(C)n3)n2)c1 | 3.5 | –
14 | Cc1cc(C)cc(Nc2nccc(-n3cc(C)c(CN4CCC(F)(F)CC4)c3)n2)c1 | 307 | –
15 | Cc1cc(C)cc(Nc2nccc(-n3cc(CN4CC(O)C4)c(C4CC4)c3)n2)c1 | 1.9 | –
16 | Cc1cn(-c2ccnc(Nc3cc(C)c(Oc4ccccc4)c(C)c3)n2)cc1CN1CC(O)C1 | 144 | –
17 | CCn1ccc2cc(Nc3nccc(-n4cc(CN5CC(O)C5)c(C)n4)n3)ccc21 | 22.8 | –
18 | Cc1cc(C)cc(Nc2nccc(-n3cc(CN4CC(O)C4)c(C)n3)n2)c1 | 7.3 | –

Row | SMILES | IC50 [1] [nM] | other results
19 | Cc1nn(-c2nc(Nc3ccc4c(c3)c(C#N)nn4C)ncc2F)cc1CN1CC(O)C1 | 5990 | –
20 | Cc1cc(C)cc(Nc2nccc(-n3cc(C)c(CN4CC[C@H](C(=O)O)C4)c3)n2)c1 | 17.8 | –
21 | Cc1cc(C)cc(Nc2nccc(-n3cc(CN4CCC(O)CC4)c(C)n3)n2)c1 | 39.1 | –
22 | Cc1cn(-c2ccnc(Nc3cc(C)c(OCC(=O)N4CCCC4)c(C)c3)n2)cc1CN1CC[C@@H](O)C1 | 14.4 | –
23 | COc1cc(Nc2nccc(-n3cc(C)c(CN(C)C)c3)n2)cc(OC)c1OC | 71.8 | –
24 | Cc1cc(C)cc(Nc2nccc(-n3cc(C)c(CN(C)C)c3)n2)c1 | 6.2 | –
25 | COc1cc(Nc2nccc(-n3cc(C)c(CN4CC(O)C4)c3)n2)cc(OC)c1OC | 38 | –
26 | Cc1nn(-c2ccnc(Nc3ccc4c(ccn4C)c3)n2)cc1CN1CC(O)C1 | 36.6 | –
27 | COc1cc(Nc2nccc(-n3cc(C)c(CN4CC(O)C4)c3)n2)cc(OC)c1OCC(=O)N1CCCC1 | 61.4 | –
28 | Cc1cn(-c2ccnc(Nc3cc(C)c(OCCN4CCCC4)c(C)c3)n2)cc1CN1CC(O)C1 | 11.5 | –
29 | Cc1cn(-c2ccnc(Nc3cc(C)c(Oc4ccccc4)c(C)c3)n2)cc1CN1CC[C@@H](O)C1 | 377 | –
30 | Cc1cc(Nc2nccc(-n3cc(CN4CC(O)C4)c(C)n3)n2)cc(C)c1OCCN1CCCC1 | 8.9 | –
31 | Cc1cc(C)cc(Nc2nccc(-n3cc(C)c(CN4CC[C@@H](N)C4)c3)n2)c1 | 13.2 | –
32 | Cc1nn(-c2ccnc(Nc3ccc4c(cnn4C4CC4)c3)n2)cc1CN1CC(O)C1 | 8 | –
33 | Cc1cc(C)cc(Nc2nccc(-n3cc(C)c(CN4CC(O)C4)c3)n2)c1 | 5.4 | –
34 | Cc1cc(C)cc(Nc2nccc(-n3cc(C)c(CN4CC[C@@H](O)C4)c3)n2)c1 | 2.3 | solubility kinetic [6]: 70 µM (≈ 26.4 µg/mL); Papp [7]: 2 ×10⁻⁶ cm/s; IC50 (Cytochrome P450 3A4): 5100 nM; IC50 [8]: 77 nM; IC50 [9]: 349 nM; CL/F [2]: 43 mL/min/kg; Vdss (Rattus norvegicus): 4.3 L/kg; half-life [3]: 2.6 h; bioavailability [4]: 7.6%; AUC(0-t) [5]: 6240 ng·h/mL
35 | Cc1nn(-c2ccnc(Nc3ccc4c(c3)c(Cl)c(C)n4C)n2)cc1CN1CC[C@@H](O)C1 | – | IC50 [10]: 73400 nM; IC50 [9]: 478 nM; IC50 [11]: 9590 nM; half-life [12]: > 1 h; Papp A→B [13]: 6.2 ×10⁻⁶ cm/s; Papp B→A [14]: 7.3 ×10⁻⁶ cm/s; IC50 [15]: > 10000 nM; Fu (Plasma): < 0.4%
